Measurements reported in patent US6004960A, “Pyridazinones as inhibitors of cyclooxygenase-2” (Merck Frosst Canada, Inc., priority 1998, dated 1999).

How the values were obtained:
COX-1 [1] = molecular target: T1, COX-1 (Homo sapiens, UniProt P23219); test: Assay of COX-1 activity from U937 cell microsomes; format: biochemical; design: Assay of COX-1 Activity from U937 cell microsomes; endogenous in cells; host or cells: U937 cells, 100,000×g microsomal pellet; settings: PGE2, read-out: COX-1 (IC50 μM) U-937
T1 sequence (P23219 24-599): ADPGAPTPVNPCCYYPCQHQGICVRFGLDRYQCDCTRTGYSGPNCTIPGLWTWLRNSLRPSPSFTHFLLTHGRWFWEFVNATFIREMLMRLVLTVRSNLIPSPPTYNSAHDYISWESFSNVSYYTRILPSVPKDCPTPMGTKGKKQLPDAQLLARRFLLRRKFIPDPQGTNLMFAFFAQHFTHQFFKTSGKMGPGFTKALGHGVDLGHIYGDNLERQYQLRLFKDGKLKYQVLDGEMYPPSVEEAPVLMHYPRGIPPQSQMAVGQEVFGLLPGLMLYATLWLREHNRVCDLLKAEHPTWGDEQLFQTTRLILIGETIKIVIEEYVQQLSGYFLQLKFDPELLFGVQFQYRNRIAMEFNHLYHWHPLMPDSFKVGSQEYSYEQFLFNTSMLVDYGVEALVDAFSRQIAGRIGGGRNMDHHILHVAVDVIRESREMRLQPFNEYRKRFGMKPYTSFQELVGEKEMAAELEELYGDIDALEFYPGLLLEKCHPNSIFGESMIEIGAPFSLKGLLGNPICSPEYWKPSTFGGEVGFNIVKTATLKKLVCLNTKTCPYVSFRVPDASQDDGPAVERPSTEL
Description: Assay of COX-1 Activity from U937 cell microsomes
U 937 cells are pelleted by centrifugation at 500×g for 5 min and washed once with phosphate-buffered saline and repelleted. […] The cell suspension is sonicated 4 times for 10 sec and is centrifuged at 10,000×g for 10 min at 4° C. The supernatant is centrifuged at 100,000×g for 1 hr at 4° C. The 100,000×g microsomal pellet is resuspended in 0.1 M Tris-HCl, pH 7.4, 10 mM EDTA to approximately 7 mg protein/ml and stored at -80° C.
Microsomal preparations are thawed immediately prior to use, subjected to a brief sonication, and then diluted to a protein concentration of 125 μg/ml in 0.1 M Tris-HCl buffer, pH 7.4 containing 10 mM EDTA, 0.5 mM phenol, 1 mM reduced glutathione and 1 μM hematin. Assays are performed in duplicate in a final volume of 250 pl. Initially, 5 µl of DMSO vehicle or drug in DMSO are added to 20 μl of 0.1 M Tris-HCl buffer, pH 7.4 containing 10 mM EDTA in wells of a 96-deepwell polypropylene titre plate. 200 μl of the microsomal preparation are then added and pre-incubated for 15 min at room temperature before addition of 25 μl of […] in 0.1 M Tris-HCl and 10 mM EDTA, pH 7.4. Samples are incubated for 40 min at room temperature and the reaction is stopped by the addition of 25 pl of 1 N HCl. Samples are neutralized with 25 μl of 1 N NaOH prior to quantitation of PGE2 content by radioimmunoassay (Dupont-NEN or Amersham assay kits). Cyclooxygenase activity is defined as the difference between PGE2 levels in samples incubated in the presence of arachidonic acid and ethanol vehicle.
In the assay, inhibition is determined by measuring the amount of prostaglandin E2 (PGE2) synthesized in the presence of arachidonic acid, cyclooxygenase-I or cyclooxygenase-2 and a putative inhibitor.

COX-1 [2] = molecular target: T1, COX-1; test: Human whole blood assay, COX-1 (clotting-induced TxB2 production); format: cell-based; design: platelets in whole blood contain a large amount of the COX-1 enzyme; from tissue; host or cells: fresh human whole blood (platelets), allowed to clot; settings: clotting-induced TxB2, 1 hour at 37° C, read-out: COX-1 (IC50 μM) HWB
Description: Human whole blood provides a protein and cell-rich milieu appropriate for the study of biochemical efficacy of anti-inflammatory compounds such as selective COX-2 inhibitors. […] This is consistent with the observation that COX-2 inhibitors have no effect on PGE2 production in normal blood. These inhibitors are active only after incubation of human whole blood with LPS, which induces COX-2. This assay can be used to evaluate the inhibitory effect of selective COX-2 inhibitors on PGE2 production. As well, platelets in whole blood contain a large amount of the COX-1 enzyme. Immediately following blood clotting, platelets are activated through a thrombin-mediated mechanism. This reaction results in the production of thromboxane B2 (TxB2) via activation of COX-1. Thus, the effect of test compounds on TxB2 levels following blood clotting can be examined and used as an index for COX-1 activity. Therefore, the degree of selectivity by the test compound can be determined by measuring the levels of PGE2 after LPS induction (COX-2) and […] following blood clotting (COX-1) in the same assay.
B. COX-1 (Clotting-induced TxB2 production)
Fresh blood is collected into vacutainers containing no anticoagulants. […] The tubes are vortexed and incubated at 37° C. for 1 hour to allow blood to clot. At the end of incubation, serum is obtained by centrifugation (12,000×g for 5 min.). A 100 μL aliquot of serum is mixed with 400 μL of methanol for protein precipitation. The supernatant is obtained and is assayed for T×B2 using a enzyme immunoassay kit (Cayman, #519031) according to the manufacturer's instruction.

Molecule `CS(=O)(=O)c1ccc(-c2cnn(Cc3ccccc3)c(=O)c2-c2cccnc2)cc1` [Example 28, 2-Benzyl-5-(4-methylsulfonyl)phenyl-4-(3-pyridyl)-2H-pyridazin-3-one] has an IC50 (COX-1 [1]) of over 10 µM and an IC50 (COX-1 [2]) of 56 µM.
